{"source": "patent US7179821B2", "about": "“Method of treating of demyelinating diseases or conditions” (Aventis Pharmaceuticals Inc., priority 2001, dated 2007)", "key": {"[1]": {"system": "voltage-dependent K+ channels", "assay": "Potassium channel currents in PC12 cells, patch clamp", "format": "cell-based", "conditions": "10 μM, 200 msec clamp pulses to +40 mV from −80 mV, n=4", "protocol": "PC12 cells (ATCC, Rockville, Md.) were grown in Dulbecco's modified Eagle's media supplemented with 10% fetal bovine serum (GIBCO BRL Grand Island, N.Y.). Potassium channel currents were measured using standard patch clamp electrophysiolgy protocols as detailed previously (Rampe et al., 1998).\nPotassium channel currents were elicited by 200 msec clamp pulses to +40 mV from a holding potential of −80 mV. […] Application of HP184 (10 μM) reduced the amplitude of this current and enhanced the rate of current decay. When current was measured at the end of the pulse, HP184 reduced current amplitude by 75±4% (n=4). The results are consisent with the notion that HP184 acts as an antagonist of voltage-dependent K^+ channels by blocking an activated state."}, "[2]": {"system": "moderate chronic (35 days post-injury) spinal cord crush", "assay": "Long standing moderate spinal cord crush (35 days), OFT score", "format": "in vivo, rat", "source_text": "A tabular representation of the results from both chronic spinal cord injury studies (drugs first administered 25 days after a mild spinal cord crush and 35 days after a moderate spinal cord crush) are shown in Table 5.\nOne hundred fifty adult female Wistar rats, 250–300 g weight, obtained from Charles River were housed in the McMaster University Health Sciences Centre (HSC) Central Animal Facilities (CAF) for at least one week. During that time they were exposed to the performance tests described below, to ensure they were familiar with them. Rats were handled daily for 2 weeks prior to surgery.\nRats were anesthetized using isoflurane (3–5%): O2 (1 L/min) in an appropriately equipped surgical suite in the CAF. Temgesic (0.03 mg/kg body weight, subcutaneously (SQ)) was administered prior to surgery for pain relief. Spinal cords were crushed (compressed) with a 3.5 mm wide modified coverslip forceps (Blight 1991, procedure revised by Rathbone laboratory). The forceps were closed to 1.4 mm for 15 sec, which produced injury level equivalent to the mid-level (moderate) outcome on the Gruner scale (1996). The compression injury was otherwise performed according to the procedure described by Blight (1991).\nChanges in locomotor behaviour and segmental reflexes were assessed up to 5 weeks post injury. Animals were tested in an open field walking task, hind limb placement and foot orientation. The animals were evaluated on days 2, 7, 14, 21, 28 and 35 after surgery. By 35 days after surgery, almost no further spontaneous recovery occurs. Therefore treatment began on day 35.\nHP184 was dissolved in sterilized (autoclaved) deionized reverse-osmosis water acidified with glacial acetic acid (0.1 ml acid per 10 ml of water). 4-AP (Sigma, molecular weight 94.12; Jankowska E. et al., 1982; Gruner et al., 1999) was dissolved in physiological saline (0.6 mg/kg b.w.) and was administered by i.p. injection. One group of rats (vehicle control-1) received by oral gavage vehicle. Behaviourial testing was done immediately prior to receiving the gavage and at 3 hours thereafter. Then, the rats were scarified on day 35. All the other rats received either HP184 by oral gavage (0.3, 1, or 3 mg/kg bw depending on the group) or 4-AP (0.6 mg/kg, i.p.) or vehicle (vehicle control-2) once a day on the 35 to 42 days after surgery. On these days behaviourial tests were done immediately prior to receiving the gavage at 3 and 24 hours thereafter. Then, the rats were perfused on day 43 after the last behaviourial testing.\nStatistical analyses were performed on a Macintosh computer using GB-Stat ppc 6.5.2. The behavioral scores were analyzed by the Kruskal-Wallis nonparametric analysis of variance (ANOVA). Post hoc comparisons were made using Mann-Whitney U tests."}, "[3]": {"system": "acute bladder irritation", "assay": "Bladder irritation in the rat (protamine sulfate/KCl model), continuous open cystometry", "format": "in vivo", "conditions": "intravenous, cumulative dose-response, urethane anesthetized rats, P=0.0019", "protocol": "Fraser et al combined protamine sulfate treatment, thought to breakdown urothelial umbrella cell barrier function, and physiologic urine concentrations of KCl (500 mM). The effects of intravenous HP-184 were compared to vehicle alone (n=4/group) in a cumulative dose-response study in urethane anesthetized rats with acute bladder irritation. Continuous open cystometry, which measures the filling and emptying of the bladder during continuous infusion, was utilized to determine the effect of the drug on bladder irritation. When the bladder is irritated, it contracts more frequently during the same filling rate due to sensitization of C-fiber afferent nerves. FIG. 8 illustrates the dose-dependent decrease in bladder contraction frequency from pre-administration irritation values compared to the effects of vehicle alone."}, "[4]": {"system": "mechanical hyperalgesia after nerve ligation", "assay": "Neuropathic pain model, spinal nerve constriction, von Frey paw withdrawal threshold", "format": "in vivo, rat", "conditions": "20 mg/kg po, tested 3 hours after dosing", "protocol": "Adult male Sprague-Dawley rats received unilateral constriction of the L6 nerve to produce chronic nerve injury. Following recovery from surgery (3–7 days post operative) animals were tested for paw withdrawal threshold to mechanical stimuli applied to the affected paw. This was determined by the application of calibrated von Frey monofilaments to the plantar surface of each hindpaw. Only animals with a 50% decrease in withdrawal threshold in the ligated paw were employed in the study, and were randomly assigned to one of 6 groups: three groups receiving one of three doses of HP 184 (0.3, 3 and 20 mg/kg, po), a fourth group receiving a single dose of another compound referred to MDL (10 mg/kg, ip), a fifth group receiving gabapentin (90 mg/kg, sc), and a sixth group receiving vehicle only. Behavioral testing occurred 45 minutes following the gabapentin (90 mg/kg, sc), and 3 hours following the HP 184, MDL, and vehicle. A difference score between the ligated and non-ligated paw withdrawal thresholds is calculated for each animal, and these differences were subjected to ANOVA with group as the main factor. […] Analysis was between/within repeated measures ANOVA. […]"}, "[5]": {"system": "moderate chronic (35 days post-injury) spinal cord crush", "assay": "Long standing moderate spinal cord crush (35 days), OFT score", "format": "in vivo, rat", "conditions": "3 mg/kg po, thirty-five days after moderate injury, single dose then daily for 4 more days"}}, "note": "Marks after values point to notes of the source that are not given here.", "data": [{"smiles": "CCCN(c1ccncc1F)n1cc(C)c2ccccc21", "note": "[HP184, N-(3-fluoro-4-pyridinyl)-N-propyl-3-methyl-1H-indole-1-amine]", "values": [{"measurement": "reduction of current amplitude at the end of the pulse", "setting": "[1]", "value": "75±4", "unit": "%"}, {"measurement": "recovery of locomotor function, comparison of the doses", "setting": "[2]; 3 mg/kg po vs 0.3 and 1 mg/kg, days 35–42", "value": "produced the best recovery of locomotor function"}, {"measurement": "% possible improvement, moderate", "setting": "[2]; 3 mpk po", "value": 24.8, "unit": "%*"}, {"measurement": "Delta of OFT score, Day 35 to Day 39 (moderate)", "setting": "[2]; 3 mpk po", "value": ".274"}, {"measurement": "OFT score Day 39 (moderate) 3 hrs after last dose", "setting": "[2]; 3 mpk po daily", "value": "4.17 ± .058"}, {"measurement": "open field locomotor ability (mean OFT scores) vs vehicle, FIGS. 6a and 6b", "setting": "[2]; HP184 0.3, 1 or 3 mg/kg po or 4-AP 0.6 mg/kg ip once a day, days 35–42, treatment effect p<0.01", "value": "significantly different from that of control animals receiving vehicle"}, {"measurement": "OFT score Day 35 (moderate) prior", "setting": "[2]; group 3 mpk po, baseline before dosing", "value": "3.89 ± .054"}, {"measurement": "bladder contraction frequency in irritated bladders, FIG. 8", "setting": "[3]", "value": "significantly decreased bladder contraction frequency in irritated bladders in a dose-dependent fashion"}, {"measurement": "mechanical hyperalgesia, difference of ligated minus normal paw withdrawal threshold, FIG. 10", "setting": "[4]", "value": "dose-response attentuation of L5 ligation mechanical hyperlagesia"}, {"measurement": "motor recovery, Open Field Walking Test", "setting": "[5]", "value": "improves motor recovery after a single dose"}]}]}
